Results reported in ChEMBL document CHEMBL5608141, “Identification of compartment-specific drug sensitivities in CRC organoid-stroma co-cultures” (2024).
Values joined by “and” are separate entries in the source; they are usually repeats but may differ in a detail not shown here. Equal values may be shown once.

How the values were obtained:
Format in all cases: functional, Homo sapiens
Set-up in all cases: dose or concentration left out as unconfirmed
[1] = tested on: Colon cancer organoid; experiment: Identification of compartment-specific drug sensitivities in O14 CRC organoid-stroma F14 CAF co-cultures. Organoid is transduced with Lucferase2-P2A-EGFP lentivirus, fibroblast with Renilla-dsRed lentivirus. Dual-Glo Luciferase assay is used to report viability data.
[2] = tested on: Colon cancer organoid; experiment: Identification of compartment-specific drug sensitivities in O06 CRC organoid-stroma F06 CAF co-cultures. Organoid is transduced with Lucferase2-P2A-EGFP lentivirus, fibroblast with Renilla-dsRed lentivirus. Dual-Glo Luciferase assay is used to report viability data.
[3] = tested on: Colon cancer organoid; experiment: Identification of compartment-specific drug sensitivities in O20 CRC organoid-stroma F20 CAF co-cultures. Organoid is transduced with Lucferase2-P2A-EGFP lentivirus, fibroblast with Renilla-dsRed lentivirus. Dual-Glo Luciferase assay is used to report viability data.
[4] = Transduced with Lucferase2-P2A-EGFP lentivirus
[5] = Transduced with Renilla-dsRed lentivirus

Row | Structure (SMILES) | Cell Viability [1, 4] | Cell Viability [1, 5] | Cell Viability [2, 4] | Cell Viability [2, 5] | Cell Viability [3, 4] | Cell Viability [3, 5]
1 | O=C(c1ccc(C(=O)N2CCC(N3CCCC3)CC2)c(Nc2ccccc2)c1)N1CCC(N2CCCC2)CC1 | 131.975% | 97.2232% | 108.091% | 96.0319% | 130.421% | 96.2949%
2 | COc1cc2c(NC3CCN(C(C)C)CC3)nc(N3CCC(F)(F)CC3)nc2cc1OCCCN1CCCC1 | 78.7749% | 75.7418% | 88.0521% | 104.162% | 136.596% | 132.743%
3 | CC(C)N(CCCNC(=O)Nc1ccc(C(C)(C)C)cc1)C[C@H]1O[C@@H](n2cc(Br)c3c(N)ncnc32)[C@H](O)[C@@H]1O | 74.0278% | 90.8718% | 62.4885% | 97.8527% | 59.6009% | 110.156%
4 | COc1cc2c(cc1OCCCN1CCCC1)N=C(N)C21CCC1 | 87.6121% | 63.8775% | 84.9948% | 83.704% | 76.3645% | 100.254%
5 | CCOC(=O)CCNc1cc(N2CCc3ccccc3CC2)nc(-c2ccccn2)n1 | 102.142% | 98.2806% | 103.039% | 116.98% | 101.525% | 127.032%
6 | O=C(O)CNC(=O)c1c(O)c2ccccc2n(Cc2ccccc2)c1=O | 107.659% | 95.196% | 145.736% | 124.036% | 96.6263% | 149.859%
7 | Cc1sc2c(c1C)C(c1ccc(Cl)cc1)=N[C@H](CC(=O)OC(C)(C)C)c1nnc(C)n1-2 | 146.34% | 95.1093% | 107.283% | 109.974% | 99.6993% | 113.657%
8 | CCCc1cc(C)[nH]c(=O)c1CNC(=O)c1cc(-c2ccc(N3CCN(C(C)C)CC3)nc2)cc2c1cnn2C(C)C | 84.6561% | 97.5786% | 81.1391% | 118.175% | 59.2451% | 157.842%
9 | COc1ccc(CCc2nc3cc(-c4c(C)noc4C)ccc3n2C[C@H](C)N2CCOCC2)cc1Cl | 147.618% | 121.055% | 78.634% | 97.126% | 96.1019% | 133.846%
10 | CCCOc1ccn2c(C(C)=O)cc(-c3ccccc3S(C)(=O)=O)c2c1 | 92.2028% | 99.133% | 121.922% | 129.269% | 150.252% | 117.742%
11 | COc1cc(C#N)ccc1S(=O)(=O)Nc1ccc2c(c1)cc(C)c(=O)n2C | 105.069% | 87.2253% | 94.9001% | 111.598% | 96.9289% | 124.149%
12 | O=C(/C=C/N1C[C@H]2C[C@@H]1CN2c1ccccn1)c1ccccc1O | 104.919% | 81.7789% | 122.112% | 121.159% | 99.3831% | 109.392%
13 | Cc1cc(=O)n(C)c2cc(N3C(=O)CC[C@H](NS(=O)(=O)CC(C)C)[C@H]3c3ccc(Cl)cc3)ccc12 | 95.8197% | 121.413% | 117.914% | 167.751% | 108.181% | 166.434%
14 | CCCS(=O)(=O)c1nc(NC2CC2)cc(-c2ccc3c(ccn3C3CC(C)(C)NC(C)(C)C3)c2)n1 | 124.727% and 116.36% | 92.6394% and 115.077% | 80.022% and 93.4216% | 88.9327% and 142.491% | 91.7549% and 133.424% | 94.2313% and 119.463%
15 | CCN(C(=O)CO)[C@H]1CN(/C(=N\C#N)Nc2cccc(OC(F)F)c2)N=C1c1ccc(Cl)c(Cl)c1 | 106.236% | 108.187% | 100.328% | 102.729% | 98.7267% | 141.776%
16 | CCC(=O)N1CCOc2c(cc(-c3ccc(OC)c(OC)c3)cc2OCC2CCCN(C)C2)C1 (configuration not stated) | 132.169% | 110.752% | 113.999% | 135.091% | 85.7121% | 123.175%

Row | Structure (SMILES) | Cell Viability [1, 4] | Cell Viability [1, 5] | Cell Viability [2, 4] | Cell Viability [2, 5] | Cell Viability [3, 4] | Cell Viability [3, 5]
17 | O=C(NCC(=O)N1CCCC1)Nc1ccc2cnccc2c1 | 110.898% | 98.9067% | 80.3687% | 124.064% | 121.558% | 100.064%
18 | Cc1cc2c(cc1N1C(=O)c3cccc4c(CCCO)ccc(c34)C1=O)n(C)c(=O)n2C | 52.1608% | 93.143% | 83.3962% | 164.269% | 35.202% | 231.762%
19 | Nc1ncnc2c1ccn2[C@@H]1O[C@H]([C@H](O)c2ccccc2)[C@@H](O)[C@H]1O | 25.5953% | 72.0424% | 22.7938% | 108.338% | 28.7794% | 179.519%
20 | Cl.Cl.c1ccc([C@@H]2C[C@H]2NC2CCNCC2)cc1 | 85.8382% | 107.738% | 78.4875% | 97.0217% | 42.8532% | 97.3617%
21 | Cn1cc(CCn2cnc(-c3cnn(C)c3)c2-c2ccc(C#N)cc2)cn1 | 93.9691% | 90.5921% | 101.212% | 117.261% | 163.337% | 107.326%
22 | CCCCNNC(=O)c1ccc(Br)cc1 | 96.2748% | 91.9269% | 113.204% | 110.004% | 131.97% | 114.511%
23 | COc1cc(Nc2ccnc3ccc(Br)cc23)cc(OC)c1OC | 56.2839% | 83.5621% | 11.1317% | 122.349% | 3.207% | 235.19%
24 | COc1cc(N(C)c2ccnc3ccc(C(F)(F)F)cc23)cc(OC)c1OC | 95.9474% | 95.4836% | 62.3452% | 117.147% | 76.7382% | 110.267%
25 | Clc1cc2c(NC3CCCC3)nnc(-c3ccncc3)c2cc1Cl | 104.198% | 96.8835% | 131.765% | 133.642% | 149.848% | 128.6%
26 | O=C(NC[C@H](O)CN1CCc2ccccc2C1)c1ccnc(NC2CCC2)c1 | 42.6769% | 91.2933% | 33.1368% | 110.399% | 43.0801% | 143.569%
27 | CN1C(=O)c2sccc2N(C)c2nc(Nc3ccc(S(N)(=O)=O)cc3)ncc21 | 48.6334% | 48.1427% | 23.972% | 57.2364% | 35.7299% | 84.1947%
28 | COc1c(C)cc(NC(=O)c2nn(Cc3ccc(F)cc3)c3c2CN(C(=O)c2ccc[nH]2)C[C@]3(C)C(N)=O)cc1C | 104.772% | 92.7757% | 66.5012% | 112.674% | 107.405% | 95.1299%
29 | Cc1nnc2c3ccccc3c(N[C@@H](C)[C@H](c3ccccc3)N(C)C)nn12 | 110.519% | 106.748% | 95.7989% | 115.114% | 82.8594% | 127.368%
30 | C[C@H]1CC(=O)Nc2cc(C(=O)NCCC3CC3)ccc2N1C(=O)N1CC2CC2C1 (some centres not stated) | 144.576% | 93.1136% | 115.835% | 132.849% | 106.68% | 112.87%
31 | Cl.O=C([C@@H](Cc1cccc(C(F)(F)F)c1)NS(=O)(=O)c1cc(F)c2c(c1)CCNC2)N1CCCC1 | 117.922% | 108.808% | 84.043% | 115.078% | 153.218% | 150.248%
32 | COc1cc(C(=O)N2CC[C@@H](O)[C@@H](N)C2)cc2nc(-c3cc4ccccc4n3CC3CC3)n(C)c12.Cl | 110.648% | 103.392% | 124.227% | 121.721% | 99.5485% | 114.018%
